From ChEMBL document CHEMBL6134888, “Challenging the "Undruggable"─Targeting STAT3 but Identifying Potent TrkA-Targeted Inhibitors” (J Med Chem, 2025)
Active and inactive are the calls of the source. No cut-off for these calls is given here.

Experiments:
[1] = molecular target: T1, High affinity nerve growth factor receptor (Homo sapiens, UniProt P04629); settings: dose 100.0 nM
Description: Inhibition of TRKA (unknown origin) at 100 nM relative to control

[2] = molecular target: T1, High affinity nerve growth factor receptor; settings: dose 100.0 nM; remark: listed apart in the source
Description: Inhibition of TRKA (unknown origin) at 100 nM ScanElect kinase assay relative to control

[3] = molecular target: Signal transducer and activator of transcription 3 (Homo sapiens) (UniProt P40763); experiment: Induction of thermal stabilization of recombinant STAT3 (127 to 668 residues)(unknown origin) incubated for 3 hrs by SYPRO orange dye based DSF analysis; settings: dose 10-100 µM
[4] = molecular target: Signal transducer and activator of transcription 3 (Homo sapiens) (UniProt P40763); experiment: Induction of thermal stabilization of recombinant STAT3 (127 to 668 residues)(unknown origin) assessed as change in melting temperature incubated for 3 hrs by SYPRO orange dye based DSF analysis
[5] = molecular target: T1, High affinity nerve growth factor receptor; settings: dose 10.0 nM
Description: Inhibition of TRKA (unknown origin) at 10 nM by Z-LYTE Kinase assay relative to control

[6] = molecular target: T1, High affinity nerve growth factor receptor; settings: dose 100.0 nM; remark: listed apart in the source
Description: Inhibition of TRKA (unknown origin) at 100 nM by Z-LYTE Kinase assay relative to control

[7] = molecular target: L-lactate dehydrogenase A chain (Homo sapiens, UniProt P00338); experiment: Inhibition of LDHA (unknown origin)
[8] = molecular target: Signal transducer and activator of transcription 3 (Homo sapiens) (UniProt P40763); experiment: Induction of thermal stabilization of recombinant STAT3 (127 to 668 residues)(unknown origin) assessed as reduction in fluorescence intensity incubated for 3 hrs by SYPRO orange dye based DSF analysis; settings: dose 100.0 µM
[9] = molecular target: Signal transducer and activator of transcription 3 (Homo sapiens) (UniProt P40763); experiment: Binding affinity to STAT3 (unknown origin) SH2 domain by FP assay
[10] = molecular target: Signal transducer and activator of transcription 3 (Homo sapiens) (UniProt P40763); experiment: Induction of thermal stabilization of STAT3 (unknown origin) at 100 uM by thermal shift assay
KM12 = experiment: cells; settings: Homo sapiens, KM12, 72 h
Description: Cytotoxicity against human KM12 cells assessed as inhibition of cell viability incubated for 72 hrs by resazurin based analysis

[11] = molecular target: Signal transducer and activator of transcription 3 (Homo sapiens) (UniProt P40763); experiment: Inhibition of STAT3 in oncostatin M-stimulated human U3A cells at 20 uM pretreated with compound for 1 hr followed by oncostatin M induction and measured after 6 hrs by luciferase assay relative to control; assay type: cell-based
[12] = molecular target: Tyrosine-protein kinase JAK2 (Homo sapiens, UniProt O60674); experiment: Inhibition of JAK2 (unknown origin) by Z-LYTE Kinase assay
[13] = molecular target: Proto-oncogene tyrosine-protein kinase Src (Homo sapiens, UniProt P12931); experiment: Inhibition of SRC (unknown origin) by Z-LYTE Kinase assay
[14] = molecular target: BDNF/NT-3 growth factors receptor (Homo sapiens, UniProt Q16620); experiment: Binding affinity to TRKB (unknown origin) assessed as dissociation constant by KINOMEscan assay
LS174T = experiment: Cytotoxicity against human LS174T cells assessed as effect on cell viability incubated for 72 hrs by resazurin based analysis
MDA-MB-231 = experiment: Cytotoxicity against human MDA-MB-231 cells assessed as effect on cell viability incubated for 72 hrs by resazurin based analysis; settings: MDA-MB-231, 72 h

T1 sequence (P04629 33-796 limits assumed): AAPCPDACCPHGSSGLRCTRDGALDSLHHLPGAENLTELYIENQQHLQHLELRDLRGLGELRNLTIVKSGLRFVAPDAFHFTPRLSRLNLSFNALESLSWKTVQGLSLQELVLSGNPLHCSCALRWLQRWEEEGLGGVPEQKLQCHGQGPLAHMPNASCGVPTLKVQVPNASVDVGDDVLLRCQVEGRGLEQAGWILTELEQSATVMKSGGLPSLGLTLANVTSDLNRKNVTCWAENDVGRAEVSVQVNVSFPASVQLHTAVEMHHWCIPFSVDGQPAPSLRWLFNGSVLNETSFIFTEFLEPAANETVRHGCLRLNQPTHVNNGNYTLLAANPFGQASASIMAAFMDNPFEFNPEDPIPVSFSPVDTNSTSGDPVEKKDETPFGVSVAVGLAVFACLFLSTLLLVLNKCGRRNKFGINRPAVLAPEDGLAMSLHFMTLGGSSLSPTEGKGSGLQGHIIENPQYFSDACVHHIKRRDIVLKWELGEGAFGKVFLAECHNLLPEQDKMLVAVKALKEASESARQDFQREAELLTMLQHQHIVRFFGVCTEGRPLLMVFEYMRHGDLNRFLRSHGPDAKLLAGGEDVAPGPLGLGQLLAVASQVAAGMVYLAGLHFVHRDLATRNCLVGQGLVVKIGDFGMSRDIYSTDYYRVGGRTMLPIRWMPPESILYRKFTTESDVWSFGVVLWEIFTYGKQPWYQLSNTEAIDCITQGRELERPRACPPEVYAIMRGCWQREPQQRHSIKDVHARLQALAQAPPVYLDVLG
Sequence of Signal transducer and activator of transcription 3 (Homo sapiens) (P40763 whole entry, the tested form may be a part): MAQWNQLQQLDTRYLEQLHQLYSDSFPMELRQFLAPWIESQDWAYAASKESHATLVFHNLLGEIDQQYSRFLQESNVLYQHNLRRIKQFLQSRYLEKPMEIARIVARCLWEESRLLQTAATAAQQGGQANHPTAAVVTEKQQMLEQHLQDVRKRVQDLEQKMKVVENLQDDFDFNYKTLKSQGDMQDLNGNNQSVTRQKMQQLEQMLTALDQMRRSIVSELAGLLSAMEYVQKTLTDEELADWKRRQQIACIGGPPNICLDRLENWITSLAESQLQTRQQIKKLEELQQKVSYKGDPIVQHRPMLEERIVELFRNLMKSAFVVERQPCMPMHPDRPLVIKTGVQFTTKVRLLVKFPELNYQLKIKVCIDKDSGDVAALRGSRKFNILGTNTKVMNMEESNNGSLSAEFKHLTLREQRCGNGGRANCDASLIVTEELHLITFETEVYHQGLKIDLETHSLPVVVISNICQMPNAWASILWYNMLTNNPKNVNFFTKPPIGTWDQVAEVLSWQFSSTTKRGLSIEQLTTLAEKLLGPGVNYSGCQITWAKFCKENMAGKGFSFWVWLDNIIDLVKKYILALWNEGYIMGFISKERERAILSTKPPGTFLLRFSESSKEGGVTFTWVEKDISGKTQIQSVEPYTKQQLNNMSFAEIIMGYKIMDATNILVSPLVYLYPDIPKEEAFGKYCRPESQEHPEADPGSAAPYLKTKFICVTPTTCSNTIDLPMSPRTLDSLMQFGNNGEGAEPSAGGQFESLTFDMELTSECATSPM
Sequence of Tyrosine-protein kinase JAK2 (O60674 whole entry): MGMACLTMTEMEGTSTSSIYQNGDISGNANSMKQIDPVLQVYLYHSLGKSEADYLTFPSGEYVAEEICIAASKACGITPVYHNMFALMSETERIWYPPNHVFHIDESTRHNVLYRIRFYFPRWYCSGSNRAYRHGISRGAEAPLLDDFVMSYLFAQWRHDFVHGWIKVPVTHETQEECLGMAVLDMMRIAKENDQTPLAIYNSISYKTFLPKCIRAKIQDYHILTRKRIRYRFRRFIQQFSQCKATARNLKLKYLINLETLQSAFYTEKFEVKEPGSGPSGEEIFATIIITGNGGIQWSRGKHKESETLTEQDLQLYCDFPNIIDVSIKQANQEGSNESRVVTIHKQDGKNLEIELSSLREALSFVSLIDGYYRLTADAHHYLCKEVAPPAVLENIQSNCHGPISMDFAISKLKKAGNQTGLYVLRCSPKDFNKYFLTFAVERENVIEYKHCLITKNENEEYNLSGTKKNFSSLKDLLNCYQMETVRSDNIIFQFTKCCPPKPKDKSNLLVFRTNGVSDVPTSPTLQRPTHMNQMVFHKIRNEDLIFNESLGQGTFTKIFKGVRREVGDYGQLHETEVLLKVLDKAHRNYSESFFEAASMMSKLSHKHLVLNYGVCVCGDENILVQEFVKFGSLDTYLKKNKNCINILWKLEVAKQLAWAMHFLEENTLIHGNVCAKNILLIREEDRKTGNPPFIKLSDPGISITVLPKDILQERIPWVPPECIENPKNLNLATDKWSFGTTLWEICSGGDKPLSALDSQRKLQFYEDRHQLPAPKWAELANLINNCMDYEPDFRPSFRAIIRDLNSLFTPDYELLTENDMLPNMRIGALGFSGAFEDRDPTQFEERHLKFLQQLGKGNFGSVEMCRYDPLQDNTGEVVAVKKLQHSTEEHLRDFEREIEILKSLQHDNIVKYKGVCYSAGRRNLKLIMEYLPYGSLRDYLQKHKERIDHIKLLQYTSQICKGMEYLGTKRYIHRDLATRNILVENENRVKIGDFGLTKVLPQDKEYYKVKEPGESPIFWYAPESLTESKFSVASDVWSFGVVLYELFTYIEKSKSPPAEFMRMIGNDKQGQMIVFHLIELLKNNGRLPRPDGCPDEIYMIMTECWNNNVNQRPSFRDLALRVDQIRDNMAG
Sequence of Proto-oncogene tyrosine-protein kinase Src (P12931 2-536 limits assumed): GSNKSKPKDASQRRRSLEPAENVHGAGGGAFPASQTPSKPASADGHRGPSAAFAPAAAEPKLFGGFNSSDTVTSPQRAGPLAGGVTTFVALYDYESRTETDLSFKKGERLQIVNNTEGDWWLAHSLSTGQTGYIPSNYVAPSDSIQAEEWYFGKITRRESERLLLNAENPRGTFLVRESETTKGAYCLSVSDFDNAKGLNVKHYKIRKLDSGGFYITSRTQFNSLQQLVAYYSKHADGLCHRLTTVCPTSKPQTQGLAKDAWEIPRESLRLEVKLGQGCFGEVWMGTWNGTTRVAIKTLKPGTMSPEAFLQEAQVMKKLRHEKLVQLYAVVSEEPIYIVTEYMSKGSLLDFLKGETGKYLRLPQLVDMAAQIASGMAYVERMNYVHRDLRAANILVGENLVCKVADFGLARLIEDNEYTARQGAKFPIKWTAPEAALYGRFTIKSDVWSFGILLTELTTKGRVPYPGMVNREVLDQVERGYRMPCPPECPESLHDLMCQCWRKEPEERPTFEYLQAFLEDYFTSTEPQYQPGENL
Sequence of BDNF/NT-3 growth factors receptor (Q16620 whole entry): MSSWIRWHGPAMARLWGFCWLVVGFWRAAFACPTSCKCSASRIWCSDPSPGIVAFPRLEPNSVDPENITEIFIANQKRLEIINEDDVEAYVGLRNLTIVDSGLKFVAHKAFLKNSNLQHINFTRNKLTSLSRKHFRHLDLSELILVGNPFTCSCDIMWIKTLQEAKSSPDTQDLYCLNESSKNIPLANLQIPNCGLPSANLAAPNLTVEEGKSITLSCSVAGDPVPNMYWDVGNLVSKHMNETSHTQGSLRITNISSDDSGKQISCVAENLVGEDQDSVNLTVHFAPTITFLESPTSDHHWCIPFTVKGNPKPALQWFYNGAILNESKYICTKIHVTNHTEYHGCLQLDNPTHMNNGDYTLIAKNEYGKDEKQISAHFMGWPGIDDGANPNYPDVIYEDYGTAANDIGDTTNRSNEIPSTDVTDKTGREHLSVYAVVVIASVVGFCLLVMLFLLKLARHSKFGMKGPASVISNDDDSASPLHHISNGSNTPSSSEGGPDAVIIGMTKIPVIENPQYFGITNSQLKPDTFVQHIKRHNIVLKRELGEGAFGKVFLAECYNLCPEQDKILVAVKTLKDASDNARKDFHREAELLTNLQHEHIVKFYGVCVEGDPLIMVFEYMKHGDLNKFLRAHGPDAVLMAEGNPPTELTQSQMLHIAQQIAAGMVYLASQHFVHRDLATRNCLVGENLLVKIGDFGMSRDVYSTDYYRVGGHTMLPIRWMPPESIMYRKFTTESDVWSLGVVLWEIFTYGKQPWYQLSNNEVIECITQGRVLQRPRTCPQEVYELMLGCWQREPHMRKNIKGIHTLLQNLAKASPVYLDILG

| Structure (SMILES) | inhibition [1] | inhibition [2] | other results |
| --- | --- | --- | --- |
| Nc1ncc(-c2cc(C(F)(F)F)cc(C(F)(F)F)c2)nc1NCc1ccco1 | – | – | Activity [3]: Dose-dependent-effect; ΔTm [4]: 0.9 °C |
| C[C@H](Nc1nc(-c2cccc(C(=O)N(C)C)c2)cnc1N)c1ccccc1 | – | – | inhibition [5]: 10%; inhibition [6]: 0% |
| Cc1cc(C)cc(-c2cnc(N)c(NC(C)c3ccccc3)n2)c1 (racemic) | – | 2% | – |
| CC(Nc1nc(-c2ccc(-c3ccccc3)cc2)cnc1N)c1ccccc1 (racemic) | – | 0% | – |
| COC(=O)c1ccc(-c2cnc(N)c(NC(C)c3ccccc3)n2)cc1 (racemic) | – | 36% | – |
| C[C@@H](Nc1nc(-c2cc(C(F)(F)F)cc(C(F)(F)F)c2)cnc1N)c1ccccc1 | – | – | Activity [3]: Dose-dependent-effect; ΔTm [4]: 0.9 °C |
| CC(Nc1nc(-c2cc(C(F)(F)F)cc(C(F)(F)F)c2)cnc1N)c1ccccc1 (racemic) | 10% | 4% | Activity [8]: Dose-dependent-effect; Activity [10]: Active; IC50 (KM12): 5300 nM; inhibition [11]: 40% |
| CC(Nc1nc(-c2cc(Cl)cc(Cl)c2)cnc1N)c1ccccc1 (racemic) | – | 0% | Activity [8]: Dose-dependent-effect; Activity [9]: Active; Activity [10]: Active |
| C[C@@H](Nc1nc(-c2cccc(C(=O)N(C)C)c2)cnc1N)c1ccccc1 | – | – | inhibition [5]: 34%; inhibition [6]: 74% |
| CC(=O)Nc1cccc(-c2cnc(N)c(NC(C)c3ccccc3)n2)c1 (racemic) | – | – | IC50 [12]: 361 nM; IC50 [13]: 1560 nM; Kd [14]: 60 nM |
| COc1cccc(OC)c1-c1cnc(N)c(NC(C)c2ccccc2)n1 (racemic) | – | 0% | Activity [8]: Dose-dependent-effect; Activity [9]: Active; Activity [10]: Active |
| CC(Nc1nc(-c2cccc([N+](=O)[O-])c2)cnc1N)c1ccccc1 (racemic) | 55% | 28% | Activity [8]: Dose-dependent-effect; Activity [9]: Active; Activity [10]: Active |
| CC(Nc1nc(-c2ccc(NS(C)(=O)=O)cc2)cnc1N)c1ccccc1 (racemic) | 38% | 23% | – |
| CC(Nc1nc(-c2ccc(F)cc2)cnc1N)c1ccccc1 (racemic) | – | 4% | Activity [8]: Dose-dependent-effect; Activity [9]: Active; Activity [10]: Active |
| CC(Nc1nc(-c2cccc3ccccc23)cnc1N)c1ccccc1 (racemic) | – | 14% | – |
| CC(Nc1nc(-c2cccc(O)c2)cnc1N)c1ccccc1 (racemic) | – | 0% | – |
| C[C@@H](Nc1nc(-c2cccc(N(C)C)c2)cnc1N)c1ccccc1 | – | – | IC50 [12]: 530 nM; IC50 [13]: 1110 nM; IC50 (LS174T): > 10000 nM; IC50 (KM12): < 300 nM; IC50 (MDA-MB-231): > 10000 nM |
| C[C@H](Nc1nc(-c2cc(C(F)(F)F)cc(C(F)(F)F)c2)cnc1N)c1ccccc1 | – | – | Activity [3]: Dose-dependent-effect; ΔTm [4]: 0.9 °C |
| CC(Nc1nc(-c2ccc3c(c2)OCO3)cnc1N)c1ccccc1 (racemic) | – | 14% | – |
| O=C(Nc1cnn2ccc(N3CCC[C@@H]3c3cc(F)ccc3F)nc12)N1CC[C@H](O)C1 [LAROTRECTINIB] | – | – | IC50 (LS174T): > 10000 nM; IC50 (KM12): 3.8 nM; IC50 (MDA-MB-231): > 10000 nM |
| CC(Nc1nc(-c2cccc(F)c2)cnc1N)c1ccccc1 (racemic) | – | 3% | Activity [8]: Dose-dependent-effect; Activity [9]: Active; Activity [10]: Active |
| CC(C)Oc1cccc(-c2cnc(N)c(NC(C)c3ccccc3)n2)c1 (racemic) | 21% | 2% | Activity [8]: Dose-dependent-effect; Activity [9]: Active; Activity [10]: Active |
| CC(Nc1nc(-c2ccccc2)cnc1N)c1ccccc1 (racemic) | 38% | 2% | – |

More lines, main results first:

| inhibition [1] | inhibition [2] | Structure (SMILES) | other results |
| --- | --- | --- | --- |
| 66% | 41% | COc1cccc(C(C)Nc2nc(-c3cccc(N(C)C)c3)cnc2N)c1 (racemic) | – |
| 17% | 7% | COc1ccc(C(C)Nc2nc(-c3cccc(N(C)C)c3)cnc2N)cc1 (racemic) | – |
| 55% | 28% | COC(=O)c1cccc(-c2cnc(N)c(NC(C)c3ccccc3)n2)c1 (racemic) | IC50 [7]: 4000 nM; Activity [8]: Dose-dependent-effect; Activity [9]: Active; Activity [10]: Active |
| 11% | 10% | Cc1ccc(C(C)Nc2nc(-c3cccc(N(C)C)c3)cnc2N)cc1 (racemic) | – |
| 67% | 41% | CC(Nc1nc(-c2cccc(C(=O)N(C)C)c2)cnc1N)c1ccccc1 (racemic) | IC50 (KM12): < 300 nM |
| 73% | 24% | CCC(Nc1nc(-c2cccc(N(C)C)c2)cnc1N)c1ccccc1 (racemic) | – |
| 28% | 4% | CN(C)c1cccc(-c2cnc(N)c(NCc3cccc(C(F)(F)F)c3)n2)c1 | – |
| 35% | 6% | Cc1ccc(CNc2nc(-c3cccc(N(C)C)c3)cnc2N)cc1C | – |
| 48% | 6% | COC(=O)c1cccc(CNc2nc(-c3cccc(N(C)C)c3)cnc2N)c1 | – |
| 79% | 21% | CN(C)c1cccc(-c2cnc(N)c(NCc3ccccc3)n2)c1 | – |
| 46% | 4% | CC(Nc1nc(-c2cccc(N(C)C)c2)cnc1N)c1ccc(S(C)(=O)=O)cc1 (racemic) | – |
| 42% | 5% | CN(C)c1cccc(-c2cnc(N)c(NCc3cccc(-c4ccccc4)c3)n2)c1 | – |
| 50% | 31% | CN(C)c1cccc(-c2cnc(N)c(NCc3cccnc3)n2)c1 | IC50 (KM12): 3700 nM |
| 58% | 11% | CN(C)c1cccc(-c2cnc(N)c(NC(c3ccccc3)C(C)(C)C)n2)c1 (racemic) | – |
| 26% | 6% | Cc1cccc(CNc2nc(-c3cccc(N(C)C)c3)cnc2N)c1 | – |
| 44% | 11% | CC(Nc1nc(-c2cccc(N(C)C)c2)cnc1N)c1cccc(C(F)(F)F)c1 (racemic) | – |
